Measured values: patent publication US8871753B2, “Macrocyclic compounds and their use as kinase inhibitors” (Incyte Corporation, priority 2008, dated 2014)
Structures can show the parent of a compound that is named as a salt. Where two headings read alike, the source gives them in different places.

Legend:
[1] = cn_pd bond, 13-membered ring, Pd(OAc)2/Xantphos/Cs2CO3/Et3N, 1,4-dioxane, 160.0 °C, 0.33 h
[2] = molecular target: T1, human JAK1 (a.a. 837-1142) (Homo sapiens, UniProt P23458); test: In vitro JAK kinase assay (HTRF, phosphorylation of a biotinylated peptide), JAK1; type: biochemical; settings: read-out: JAK1 IC50
T1 construct: human JAK1 (a.a. 837-1142); His tag (N); made in house; host or cells: insect cells (baculovirus)
T1 sequence (P23458 849-1154): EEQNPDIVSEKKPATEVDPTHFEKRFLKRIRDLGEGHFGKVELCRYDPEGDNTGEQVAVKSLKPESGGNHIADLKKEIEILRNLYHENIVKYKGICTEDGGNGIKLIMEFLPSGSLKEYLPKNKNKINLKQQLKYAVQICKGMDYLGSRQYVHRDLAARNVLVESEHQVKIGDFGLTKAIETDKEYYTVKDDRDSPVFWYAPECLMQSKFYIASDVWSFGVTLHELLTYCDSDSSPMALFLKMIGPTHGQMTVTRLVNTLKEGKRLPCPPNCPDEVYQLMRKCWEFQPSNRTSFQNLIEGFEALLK
Procedure, shortened: (§1)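 Phosphorylation of a biotinylated peptide by the JAK kinase domain, detected by HTRF with Eu-Py20 and SA-APC. ATP was 90 μM for JAK1, 30 μM for JAK2 and 3 μM for JAK3. Reactions ran 1 h at room temperature and were stopped with EDTA, followed by 40 min antibody binding.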

[3] = molecular target: T2, human JAK3 (a.a. 781-1124) (Homo sapiens, UniProt P52333); test: In vitro JAK kinase assay (HTRF, phosphorylation of a biotinylated peptide), JAK3; type: biochemical
T2 construct: JAK3 (a.a. 781-1124); His tag (N); made in house; host or cells: insect cells (baculovirus)
T2 sequence (P52333 781-1124): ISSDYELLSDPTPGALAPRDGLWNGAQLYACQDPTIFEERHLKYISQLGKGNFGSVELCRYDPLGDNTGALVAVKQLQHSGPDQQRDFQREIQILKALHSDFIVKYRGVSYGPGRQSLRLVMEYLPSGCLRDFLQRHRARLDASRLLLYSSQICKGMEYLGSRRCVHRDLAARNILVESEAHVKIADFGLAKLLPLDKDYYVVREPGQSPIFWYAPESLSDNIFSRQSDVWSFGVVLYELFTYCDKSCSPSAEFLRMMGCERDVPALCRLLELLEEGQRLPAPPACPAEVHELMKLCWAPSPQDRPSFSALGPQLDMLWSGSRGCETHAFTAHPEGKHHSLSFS
Procedure, shortened: as §1

[4] = molecular target: TYK2 (Homo sapiens, UniProt P29597); test: TYK2 kinase inhibition (Table A1); type: biochemical
TYK2, sequence (P29597 whole entry): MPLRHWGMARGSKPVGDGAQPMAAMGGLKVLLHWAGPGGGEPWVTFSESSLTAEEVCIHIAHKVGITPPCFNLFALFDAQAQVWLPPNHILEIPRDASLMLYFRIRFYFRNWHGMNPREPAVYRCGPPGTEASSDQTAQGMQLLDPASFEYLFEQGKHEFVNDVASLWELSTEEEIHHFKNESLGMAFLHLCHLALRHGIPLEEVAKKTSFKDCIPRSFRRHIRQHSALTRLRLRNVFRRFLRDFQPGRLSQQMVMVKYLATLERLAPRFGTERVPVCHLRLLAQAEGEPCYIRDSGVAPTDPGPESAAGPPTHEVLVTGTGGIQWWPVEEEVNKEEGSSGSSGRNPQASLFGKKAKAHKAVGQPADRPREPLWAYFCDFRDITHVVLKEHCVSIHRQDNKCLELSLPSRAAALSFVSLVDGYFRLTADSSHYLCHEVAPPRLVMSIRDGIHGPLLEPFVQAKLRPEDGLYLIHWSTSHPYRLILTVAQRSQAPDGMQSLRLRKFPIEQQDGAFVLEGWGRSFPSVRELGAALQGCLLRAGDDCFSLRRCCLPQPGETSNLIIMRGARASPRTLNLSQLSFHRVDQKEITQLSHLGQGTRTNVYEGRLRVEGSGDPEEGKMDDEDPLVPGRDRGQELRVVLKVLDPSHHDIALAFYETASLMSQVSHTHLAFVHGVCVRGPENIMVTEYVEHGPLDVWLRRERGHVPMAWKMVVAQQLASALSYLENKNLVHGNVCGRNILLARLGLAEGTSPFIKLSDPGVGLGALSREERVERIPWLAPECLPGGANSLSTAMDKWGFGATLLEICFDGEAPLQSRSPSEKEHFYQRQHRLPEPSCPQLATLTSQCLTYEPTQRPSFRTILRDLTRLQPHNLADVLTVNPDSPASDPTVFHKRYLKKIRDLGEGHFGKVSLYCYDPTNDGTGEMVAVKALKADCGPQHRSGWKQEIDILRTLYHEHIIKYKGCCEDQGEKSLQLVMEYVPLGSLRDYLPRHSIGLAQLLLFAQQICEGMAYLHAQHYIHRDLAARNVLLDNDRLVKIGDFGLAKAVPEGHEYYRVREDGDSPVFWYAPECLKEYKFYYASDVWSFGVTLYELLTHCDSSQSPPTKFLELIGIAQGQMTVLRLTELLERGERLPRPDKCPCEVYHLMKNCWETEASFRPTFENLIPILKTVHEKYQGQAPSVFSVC

[5] = molecular target: T3, human JAK2 (a.a. 828-1132) (Homo sapiens, UniProt O60674); test: In vitro JAK kinase assay (HTRF, phosphorylation of a biotinylated peptide), JAK2; type: biochemical
T3 construct: JAK2 (a.a. 828-1132); His tag (N); made in house; host or cells: insect cells (baculovirus)
T3 sequence (O60674 828-1132): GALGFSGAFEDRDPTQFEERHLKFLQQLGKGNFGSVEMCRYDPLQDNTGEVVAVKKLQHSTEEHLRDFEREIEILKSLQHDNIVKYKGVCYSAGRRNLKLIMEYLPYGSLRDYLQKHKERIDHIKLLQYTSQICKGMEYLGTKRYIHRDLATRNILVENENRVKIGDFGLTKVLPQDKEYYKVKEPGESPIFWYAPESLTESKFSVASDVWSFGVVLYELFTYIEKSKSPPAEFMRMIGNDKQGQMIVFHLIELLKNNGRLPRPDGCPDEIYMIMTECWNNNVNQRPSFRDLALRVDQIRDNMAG
Procedure, shortened: as §1

[6] = molecular target: T4, Recombinant Human Anaplastic Lymphoma Kinase (Homo sapiens, UniProt Q9UM73); test: ALK HTRF kinase assay; type: biochemical
T4 construct: purchased Invitrogen, Carlsbad, Calif
T4 sequence (Q9UM73 19-1620): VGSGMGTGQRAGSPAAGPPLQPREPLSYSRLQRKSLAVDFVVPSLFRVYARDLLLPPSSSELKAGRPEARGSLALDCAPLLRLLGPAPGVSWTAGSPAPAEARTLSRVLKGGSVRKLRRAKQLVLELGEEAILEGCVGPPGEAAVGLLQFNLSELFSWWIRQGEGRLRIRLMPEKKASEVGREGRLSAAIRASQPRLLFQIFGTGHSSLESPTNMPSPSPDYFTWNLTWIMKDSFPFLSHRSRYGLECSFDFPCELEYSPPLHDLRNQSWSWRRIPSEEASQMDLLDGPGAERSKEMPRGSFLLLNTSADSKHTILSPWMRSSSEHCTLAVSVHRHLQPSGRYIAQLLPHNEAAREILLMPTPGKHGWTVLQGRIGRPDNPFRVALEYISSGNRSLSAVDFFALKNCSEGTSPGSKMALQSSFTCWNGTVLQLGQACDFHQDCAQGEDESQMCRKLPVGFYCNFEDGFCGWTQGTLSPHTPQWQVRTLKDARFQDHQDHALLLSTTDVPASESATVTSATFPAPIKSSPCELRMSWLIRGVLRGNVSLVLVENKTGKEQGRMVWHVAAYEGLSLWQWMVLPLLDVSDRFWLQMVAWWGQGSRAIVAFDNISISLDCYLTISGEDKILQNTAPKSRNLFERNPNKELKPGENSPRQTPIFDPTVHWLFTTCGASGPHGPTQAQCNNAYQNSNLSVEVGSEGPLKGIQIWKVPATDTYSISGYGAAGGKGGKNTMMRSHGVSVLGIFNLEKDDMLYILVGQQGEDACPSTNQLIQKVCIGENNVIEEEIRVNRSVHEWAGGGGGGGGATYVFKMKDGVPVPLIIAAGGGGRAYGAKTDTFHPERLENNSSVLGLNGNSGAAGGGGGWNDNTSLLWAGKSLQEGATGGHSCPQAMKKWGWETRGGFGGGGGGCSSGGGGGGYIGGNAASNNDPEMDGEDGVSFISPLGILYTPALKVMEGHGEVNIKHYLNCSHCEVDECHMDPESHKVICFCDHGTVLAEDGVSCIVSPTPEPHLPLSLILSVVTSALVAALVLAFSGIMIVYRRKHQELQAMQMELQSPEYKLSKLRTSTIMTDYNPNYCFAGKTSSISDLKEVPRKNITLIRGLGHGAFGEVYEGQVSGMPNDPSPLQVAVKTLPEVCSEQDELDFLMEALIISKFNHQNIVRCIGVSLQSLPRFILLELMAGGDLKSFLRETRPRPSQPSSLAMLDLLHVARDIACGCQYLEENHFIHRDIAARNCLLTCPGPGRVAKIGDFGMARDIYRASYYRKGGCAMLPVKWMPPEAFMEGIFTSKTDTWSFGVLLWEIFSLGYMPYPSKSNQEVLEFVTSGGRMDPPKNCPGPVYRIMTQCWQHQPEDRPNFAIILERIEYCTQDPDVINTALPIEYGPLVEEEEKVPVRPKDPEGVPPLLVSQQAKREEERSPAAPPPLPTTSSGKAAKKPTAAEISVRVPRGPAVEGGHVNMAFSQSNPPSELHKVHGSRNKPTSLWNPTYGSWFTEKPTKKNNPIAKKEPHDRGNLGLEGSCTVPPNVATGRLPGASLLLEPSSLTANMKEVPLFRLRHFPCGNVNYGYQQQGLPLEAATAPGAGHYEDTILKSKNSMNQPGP
Procedure, shortened: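 Readout was HTRF between a Eu-W1024 anti-phosphotyrosine antibody and streptavidin-APC bound to biotinylated peptide phosphorylated by recombinant human ALK. IC50 values came from a four-parameter logistic fit.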

[7] = Table B1, cells without percent sign
[8] = compound at a concentration of 500 nM or 1 mM (not specified), cells shown as percentage

Compound	IC50 ([2]; Table B1) [µM]	IC50 [6, 7] [µM]	IC50 ([3]; Table B1) [µM]	IC50 ([4]; Table B1) [µM]	IC50 ([5]; Table B1) [µM]	ALK % of inhibition at a concentration of 500 nM or 1 mM [6, 8] [%]	other results
Nc1ccc2cc1CCc1cncc(c1)Nc1ncc(F)c(n1)N2							ring closure, yield after HPLC ([1]; from Nc1cncc(CCc2cc(Nc3nc(Cl)ncc3F)ccc2N)c1, 158.0 mM): 8%
Cc1cnc2nc1Nc1ccc(N)c(c1)CCc1cncc(c1)N2 [Example C50, 6-Methyl-2,4,8,18,22-pentaazatetracyclo[14.3.1.1(3,7).1(9,13)]docosa-1(20),3(22),4,6,9(21),10,12,16,18-nonaen-12-amine tris(trifluoroacetate)]							IC50 [2]: 0.033 µM; ring closure, yield after HPLC ([1]; from Cc1cnc(Cl)nc1Nc1ccc(N)c(CCc2cncc(N)c2)c1, 135.0 mM): 50%; IC50 [3]: > 0.4 µM; IC50 [4]: 0.08 µM; IC50 [5]: 0.111 µM
O=C(Nc1cc2cc(c1)OCCSc1cccc(c1)Nc1nc(ncc1Cl)N2)c1ccno1 [Example D59, N-[6-Chloro-17-oxa-14-thia-2,4,8,24-tetraazatetracyclo[16.3.1.1(3,7).1(9,13)]tetracosa-1(22),3(24),4,6,9(23),10,12,18,20-nonaen-20-yl]isoxazole-5-carboxamide trifluoroacetate]							IC50 ([2]; Table D1): 0.0023 µM; IC50 ([6]; Table D1, 90 μM ATP): 0.2 µM; IC50 ([3]; Table D1): 0.0071 µM; IC50 ([4]; Table D1): 0.0021 µM; IC50 ([5]; Table D1): 0.0006 µM
N#Cc1ccc(NC(=O)Nc2ccc3cc2CCc2cccc(c2)Nc2ncc(Cl)c(n2)N3)cc1 [Example B96, N-[6-Chloro-2,4,8,22-tetraazatetracyclo[14.3.1.1(3,7).1(9,13)]docosa-1(20), 3(22),4,6,9(21),10,12,16,18-nonaen-12-yl]-N′-(4-cyanophenyl)urea trifluoroacetate]	0.001	> 1	0.045	0.012	0.006		
CNC(=O)Nc1ccc2cc1CCc1cncc(c1)Nc1ncc(Cl)c(n1)N2 [Example B135, N-[6-Chloro-2,4,8,18,22-pentaazatetracyclo[14.3.1.1(3,7).1(9,13)]docosa-1(20),3(22),4,6,9(21),10,12,16,18-nonaen-12-yl]-N′-methylurea bis(trifluoroacetate)]	0.00069		0.03	0.0068	0.0043	13	
Clc1cnc2nc1Nc1cccc(c1)CSc1cccc(c1)N2 [Example D2, 6-Chloro-15-thia-2,4,8,22-tetraazatetracyclo[14.3.1.1(3,7).1(9,13)]docosa-1(20),3(22),4,6,9(21),10,12,16,18-nonaene trifluoroacetate]							IC50 ([2]; Table D1): 0.019 µM; IC50 ([6]; Table D1, 90 μM ATP): 0.774 µM; IC50 ([3]; Table D1): 0.013 µM; IC50 ([4]; Table D1): 0.025 µM; IC50 ([5]; Table D1): 0.0073 µM
CC(C)(C)C(=O)Nc1ccc2cc1CCc1cccc(c1)Nc1ncc(Cl)c(n1)N2 [Example B58, N-[6-Chloro-2,4,8,22-tetraazatetracyclo[14.3.1.1(3,7).1(9,13)]docosa-1(20), 3(22),4,6,9(21),10,12,16,18-nonaen-12-yl]-2,2-dimethylpropanamide trifluoroacetate]	0.365	> 1	0.107	0.228	0.047		
CS(=O)(=O)N1CCN(c2cc(-c3cc4cc(c3)Nc3ncc(Cl)c(n3)Nc3cccc(c3)OCC4)ccn2)CC1 [Example D36, 6-Chloro-19-{2-[4-(methylsulfonyl)piperazin-1-yl]pyridin-4-yl}-14-oxa-2,4,8,23-tetraazatetracyclo[15.3.1.1(3,7).1(9,13)]tricosa-1(21),3(23),4,6,9(22),10,12,17,19-nonaene bis(trifluoroacetate)]							IC50 ([2]; Table D1): 0.0013 µM; IC50 ([6]; Table D1, 90 μM ATP): 0.225 µM; IC50 ([3]; Table D1): 0.0049 µM; IC50 ([4]; Table D1): 0.0049 µM; IC50 ([5]; Table D1): 0.0004 µM
O=C(Nc1ccc2cc1CCc1cccc(c1)Nc1ncc(Cl)c(n1)N2)c1ccc2occc2c1 [Example B79, N-[6-Chloro-2,4,8,22-tetraazatetracyclo[14.3.1.1(3,7).1(9,13)]docosa-1(20), 3(22),4,6,9(21),10,12,16,18-nonaen-12-yl]-1-benzofuran-5-carboxamide trifluoroacetate]	0.00083		0.0028	0.0017	0.00058	91	
O=C(Nc1ccc2cc1CCc1cccc(c1)Nc1ncc(Cl)c(n1)N2)c1ccc(Cl)cc1 [Example B43, 4-Chloro-N-[6-chloro-2,4,8,22-tetraazatetracyclo[14.3.1.1(3,7).1(9,13)]docosa-1(20),3(22),4,6,9(21),10,12,16,18-nonaen-12-yl]benzamide hydrochloride]	0.00079	0.17	0.0067	0.0029	0.0011		
O=C(Nc1ccc2cc1CCc1cccc(c1)Nc1ncc(Cl)c(n1)N2)Nc1ccccc1OC(F)(F)F [Example B131, N-[6-Chloro-2,4,8,22-tetraazatetracyclo[14.3.1.1(3,7).1(9,13)]docosa-1(20), 3(22),4,6,9(21),10,12,16,18-nonaen-12-yl]-N′-[2-(trifluoromethoxy)phenyl]urea trifluoroacetate]	0.0073		0.063	0.033	0.013	5.9	
O=C(Nc1ccccc1Cl)c1cc2cc(c1)Nc1nc(ncc1Cl)Nc1cccc(c1)CC2 [Example B14, 6-Chloro-N-(2-chlorophenyl)-2,4,8,22-tetraazatetracyclo[14.3.1.1(3,7).1(9,13)]docosa-1(20),3(22),4,6,9(21),10,12,16,18-nonaene-11-carboxamide trifluoroacetate]	0.232	> 1	0.314	> 1	0.119		
O=C(Nc1ccc(CCO)cc1)c1cc2cc(c1)Nc1nc(ncc1Cl)Nc1cccc(c1)CC2 [Example B10, 6-Chloro-N-[4-(2-hydroxyethyl)phenyl]-2,4,8,22-tetraazatetracyclo[14.3.1.1(3,7).1(9,13)]docosa-1(20),3(22),4,6,9(21),10,12,16,18-nonaene-11-carboxamide trifluoroacetate]	0.068	1.96	0.051	0.172	0.012		
O=C(Nc1ccc2cc1CCc1cccc(c1)Nc1ncc(Cl)c(n1)N2)C1CCN(C(=O)c2ccc3c(c2)OCO3)CC1 [Example A31, 1-(1,3-Benzodioxol-5-ylcarbonyl)-N-[6-chloro-2,4,8,22-tetraazatetracyclo[14.3.1.1(3,7).1(9,13)]docosa-1(20),3(22),4,6,9(21),10,12,16,18-nonaen-12-yl]piperidine-4-carboxamide trifluoroacetate]							IC50 ([2]; method AA1 (90 μM ATP) or AA2 (1000 μM ATP), not stated per value): 0.042 µM; ALK % of inhibition at a concentration of 500 nM or 1 mM ([6]; compound at 500 nM or 1 mM, 90 μM ATP): 26%; IC50 ([3]; method AA1 (3 μM ATP) or AA2 (1000 μM ATP), not stated per value): 0.108 µM; IC50 [4]: 0.115 µM; IC50 ([5]; method AA1 (30 μM ATP) or AA2 (1000 μM ATP), not stated per value): 0.049 µM

Second part, led by results:

IC50 ([2]; Table B1) [µM]	IC50 [6, 7] [µM]	IC50 ([3]; Table B1) [µM]	IC50 ([4]; Table B1) [µM]	IC50 ([5]; Table B1) [µM]	ALK % of inhibition at a concentration of 500 nM or 1 mM [6, 8] [%]	Compound	other results
0.188	> 10	0.509	> 1	0.146		Cc1cc(C(=O)Nc2cc3cc(c2)Nc2nc(ncc2Cl)Nc2cccc(c2)CC3)no1 [Example B205, N-[6-Chloro-2,4,8,22-tetraazatetracyclo[14.3.1.1(3,7).1(9,13)]docosa-1(20),3(22),4,6,9(21),10,12,16,18-nonaen-11-yl]-5-methylisoxazole-3-carboxamide trifluoroacetate]	
0.0001		0.0001	0.00014	0.0001	82	NS(=O)(=O)Nc1ccc2cc1CCc1cccc(c1)Nc1ncc(Cl)c(n1)N2 [Example B184, N-[6-Chloro-2,4,8,22-tetraazatetracyclo[14.3.1.1(3,7).1(9,13)]docosa-1(20),3(22),4,6,9(21),10,12,16,18-nonaen-12-yl]sulfamide trifluoroacetate]	
0.276		> 10	1.79	0.446	4.6	Cc1cc(C(=O)Nc2ccc3cc2CCc2cccc(c2)Nc2ncc(Cl)c(n2)N3)nc(Cl)n1 [Example B280, 2-Chloro-N-[6-chloro-2,4,8,22-tetraazatetracyclo[14.3.1.1(3,7).1(9,13)]docosa-1(20),3(22),4,6,9(21),10,12,16,18-nonaen-12-yl]-6-methylpyrimidine-4-carboxamide bis(trifluoroacetate)]	
0.0033		0.047	0.026	0.012	17	CNC(=O)N1CC[C@H](NC(=O)Nc2ccc3cc2CCc2cccc(c2)Nc2ncc(Cl)c(n2)N3)C1 [Example B169, (3S)-3-[({[6-Chloro-2,4,8,22-tetraazatetracyclo[14.3.1.1(3,7).1(9,13)]docosa-1(20),3(22),4,6,9(21),10,12,16,18-nonaen-12-yl]amino}carbonyl)amino]-N-methylpyrrolidine-1-carboxamide Trifluoracetate]	
